Results from article PMC12363518, “Azobenzene-Modified Temperature-Responsive Short Elastin-like Peptides for Photo-Controlled Phase Transition” (ACS Synthetic Biology, 2025).
Numbered stars: 1 amine (or outer) side, 2 acyl side, 3 side chain; on linkers, the order of the positions; unused ones are H or OH. Bridge positions count the residues as written; N and C are the ends. Square brackets hold non-standard residues; d marks the D form. Peptide text beside a SMILES is read from it. I, II: the chains in the order shown. X1 = O=C(c1ccc(N=Nc2ccc(C(=O)[*:2])cc2)cc1)[*:1]; X2 = O=C(c1ccc(N=Nc2ccc(N[*:1])cc2)cc1)[*:2]; X3 = c1cc(N[*:1])ccc1N=Nc1ccc(N[*:2])cc1

How the values were obtained:
[1] = not given; remark: listed apart in the source
[2] = Turbidity measurement (OD600) of temperature-dependent phase separation, Tt; assay type: physicochemical; conditions: even at 2.38 mM (5.00 mg/mL) in PBS; turbidity OD600
Experimental: The ability of the ELP–azobenzene conjugates to self-assemble was investigated by using turbidity measurements. In addition, we evaluated whether the photoisomerization of the azobenzene moieties induced differences in the aggregation ability of these analogues. Each peptide analogue was dissolved in PBS at different concentrations according to its water solubility. To quantitatively evaluate the aggregation ability, the transition temperature (T t) of the peptides was calculated from the change in optical density at a wavelength of 600 nm (OD600) associated with the increasing temperature (Table and Figure ).
The temperature-dependent self-assembly property of synthesized peptides was evaluated by using a JASCO V-660 spectral photometer (JASCO Co.). Each peptide was dissolved in PBS buffer or phosphate buffer solutions at various concentrations. Three types of phosphate buffers with the same ionic strength (μ = 0.100) but different pH (pH 7.4, 2.1, and 11.5) were prepared: phosphate buffer (pH 7.4, 29.4 mM Na2HPO4, 11.7 mM NaH2PO4), phosphate buffer (pH 2.1, 10.0 mM NaH2PO4, 10.5 mM phosphoric acid), and phosphate buffer (pH 11.5, 9.58 mM Na3PO4, 14.2 mM Na2HPO4). Turbidity was measured at 600 nm with increasing or decreasing temperature at a rate of 0.5 °C/min from 5 °C. The measurements were performed for the dark-adapted solution and after successive irradiation with UV light, visible light, and UV light. Each assay was repeated three times with different peptide solutions that were prepared separately. The phase separation property was described by the phase transition temperature (T t), which is the temperature at which the turbidity of the solution reaches half its maximum value.

[3] = Particle size distribution by dynamic light scattering (DLS); assay type: physicochemical; conditions: PBS
[4] = Water solubility (observation); assay type: physicochemical; conditions: qualitative observation

SMILES	peak wavelength π–π* [nm]	peak wavelength n–π* [1] [nm]	phase separation in PBS [2]	self-assembly in dark-adapted solution (DLS) [3]	water solubility [4]
CC(C)[C@H](NC(=O)CNC(=O)[C@@H]1CCCN1C(=O)[C@H](Cc1ccccc1)NC(=O)CNC(=O)[C@@H](NC(=O)CNC(=O)[C@@H]1CCCN1C(=O)[C@@H](N)Cc1ccccc1)C(C)C)C(=O)NCC(=O)N[C@@H](CC(=O)O)C(=O)Nc1ccc(N=Nc2ccc(NC(=O)[C@H](CC(=O)O)NC(=O)CNC(=O)[C@@H](NC(=O)CNC(=O)[C@@H]3CCCN3C(=O)[C@H](Cc3ccccc3)NC(=O)CNC(=O)[C@@H](NC(=O)CNC(=O)[C@@H]3CCCN3C(=O)[C@@H](N)Cc3ccccc3)C(C)C)C(C)C)cc2)cc1 (I: H-FPGVGFPGVGD / II: H-FPGVGFPGVGD; linker I:C-II:C via X3)	364	450	–	–	–
CC(C)[C@H](NC(=O)CNC(=O)[C@@H]1CCCN1C(=O)[C@H](Cc1ccccc1)NC(=O)CNC(=O)[C@@H](NC(=O)CNC(=O)[C@@H]1CCCN1C(=O)[C@H](Cc1ccccc1)NC(=O)c1ccc(N=Nc2ccc(C(=O)N[C@@H](Cc3ccccc3)C(=O)N3CCC[C@H]3C(=O)NCC(=O)N[C@H](C(=O)NCC(=O)N[C@@H](Cc3ccccc3)C(=O)N3CCC[C@H]3C(=O)NCC(=O)N[C@H](C(=O)NCC(=O)O)C(C)C)C(C)C)cc2)cc1)C(C)C)C(=O)NCC(=O)O [Azb-2(F2)] (I: FPGVGFPGVG-OH / II: FPGVGFPGVG-OH; linker I:N-II:N via X1)	–	–	did not exhibit phase separation	did not exhibit self-assembly	–
CC(C)[C@H](NC(=O)CNC(=O)[C@@H]1CCCN1C(=O)[C@H](Cc1ccccc1)NC(=O)CNC(=O)[C@@H](NC(=O)CNC(=O)[C@@H]1CCCN1C(=O)[C@H](Cc1ccccc1)NC(=O)c1ccc(N=Nc2ccc(NC(=O)CNC(=O)[C@@H](NC(=O)CNC(=O)[C@@H]3CCCN3C(=O)[C@H](Cc3ccccc3)NC(=O)CNC(=O)[C@@H](NC(=O)CNC(=O)[C@@H]3CCCN3C(=O)[C@@H](N)Cc3ccccc3)C(C)C)C(C)C)cc2)cc1)C(C)C)C(=O)NCC(N)=O [F2-Azb-F2-NH2] (H-FPGVGFPGVG[X2]FPGVGFPGVG-NH2)	356	450	–	–	low water solubility
CC(C)[C@H](NC(=O)CNC(=O)[C@@H]1CCCN1C(=O)[C@H](Cc1ccccc1)NC(=O)CNC(=O)[C@@H](NC(=O)CNC(=O)[C@@H]1CCCN1C(=O)[C@H](Cc1ccccc1)NC(=O)c1ccc(N=Nc2ccc(NC(=O)CNC(=O)[C@@H](NC(=O)CNC(=O)[C@@H]3CCCN3C(=O)[C@H](Cc3ccccc3)NC(=O)CNC(=O)[C@@H](NC(=O)CNC(=O)[C@@H]3CCCN3C(=O)[C@@H](N)Cc3ccccc3)C(C)C)C(C)C)cc2)cc1)C(C)C)C(=O)NCC(=O)O [F2-Azb-F2] (H-FPGVGFPGVG[X2]FPGVGFPGVG-OH)	354	444	–	–	low water solubility
